Data from patent US11752125B2, “Anti-neuroinflammatory and protective compounds in Achillea fragrantissima” (THE STATE OF ISRAEL MINISTRY OF AGRICULTURE & RURAL …, priority 2013, dated 2023).

Columns and labels:
ERK1/2 = assay: SNP-induced ERK1/2 phosphorylation in N2a cells (ELISA); assay type: cell-based; details: concomitant treatment 40 min, total protein not affected
Description: N2a cells were treated concomitantly with SNP and TTF for 40 min. Cells were extracted and the levels of phosphorylated or total ERK1/2 were determined by specific ELISA kits. The results are shown in FIG. 19 and are the mean±SEM of one experiment (n=2).

microglial cells [1] = assay: Viability of microglial cells in MMP-9 experiments (crystal violet); assay type: cell-based, rat; details: 24 h
Description: [formula] In MMP-9 experiments and in the cellular antioxidant activity (CAA) assays, cell viability was determined by a modification of the crystal violet assay. Microglial cells were treated with the indicated concentrations of achillolide A, followed by stimulation with LPS (4.5 ng/mL). Conditioned media were collected 24 h later and tested for MMP-9 activity by gel zymography as shown in FIG. 23 A. The zymogram represents two independent experiments. The levels of MMP-9 transcripts were measured by quantitative real-time PCR. The results from three technical replicates were normalized to β-actin and are expressed as relative quantity of MMP-9 transcripts in FIG. 23 B. The results are means±SD of one representative experiment out of three experiments. Cell viability was determined 24 h later by the crystal violet assay. Values represent the means±SEM (n=4 for each treatment).

microglial cells [2] = assay: Cytotoxicity in LPS-activated microglial cells (LDH); assay type: cell-based, rat; details: LPS 4.5 ng/mL, 20 h
Description: Cell viability was determined using a commercial colorimetric assay (Roche Applied Science, Germany) which measures Lactate Dehydrogenase (LDH) activity released from the cytosol of damaged cells into the incubation medium. The absorbance was measured at 492 nm in a plate reader. The percentage of cytotoxicity was calculated according to the following equation, where the LDH activity released from the untreated cells is the spontaneous LDH release, and the maximum releasable LDH in the cells is the:
In FIG. 21 A, microglial cells were treated with different concentrations of achillolide A, dexamethasone or memantine (as reference drugs) and were concomitantly activated by LPS (4.5 ng/mL) for 20 h. Cell conditioned supernatants were collected, and the levels of NO were measured using Griess reaction. Cytotoxicity was measured using the LDH method (FIG. 21B). Values represent the mean±SEM (n=12 for each treatment). ** p<0.01; ***p<0.001 relative to cells that were treated to LPS only.

MMP-9 = MMP-9 activity in LPS-activated microglial cells (gelatin zymography); assay type: cell-based, rat; details: LPS 4.5 ng/mL, 24 h
Text: Determination of MMP Activities in Conditioned Media of Microglial Cells. MMP-9 activity was quantified by gelatin zymography.
1. Prepare a primary culture of microglial cells and plate cells as described in “Anti-neuroinflammatory effects of the extract of achillea fragrantissima” 2011. A. Elmann, S. Mordechay, H. Erlank, A. Telerman, M. Rindner, R. Ofir. BMC Complementary and Alternative Medicine. 11:98; 2. Treat cells with freshly diluted AcA of the invention; 3. Activate microglial cells with lipopolysaccharide (LPS, 4.5 nanograms/mL); 4. Measure the levels of MMP-9 by gel zymography as described in “Anti-neuroinflammatory effects of the extract of achillea fragrantissima” 2011. A. Elmann, S. Mordechay, H. Erlank, A. Telerman, M. Rindner, R. Ofir. BMC Complementary and Alternative Medicine. 11:98. 5. […]
Microglial cells were treated with the indicated concentrations of achillolide A, followed by stimulation with LPS (4.5 ng/mL). […] The levels of MMP-9 transcripts were measured by quantitative real-time PCR. The results from three technical replicates were normalized to β-actin and are expressed as relative quantity of MMP-9 transcripts in FIG. 23 B. The results are means±SD of one representative experiment out of three experiments. Cell viability was determined 24 h later by the crystal violet assay. […]

glutamate = assay: Glutamate secretion from LPS-activated microglial cells; assay type: cell-based, rat; details: LPS 100 ng/mL, 20 h
Description: For glutamate measurements, 3.5×10^4 cells/well were plated on a 24-well tissue culture plate. After 24 h of incubation in DMEM containing 10% FBS, cells were stimulated with LPS (100 ng/mL) and treated with different concentrations of achillolide A. Conditioned media were collected twenty hours later, and were tested for glutamate levels using a colorimetric enzymatic assay kit (glutamate assay kit, BioVision, CA, USA) according to the manufacturer's instructions. 7. Measure the levels of glutamate using a colorimetric enzymatic assay kit (glutamate assay kit, BioVision, CA, USA) according to the manufacturer's instructions. Microglial cells were treated with the indicated concentrations of achillolide A, followed by stimulation with LPS (100 ng/mL). After 20 h, conditioned media were collected and tested for glutamate levels by a commercial kit. Values represent the means±SEM (n=4 for each treatment). ** p<0.01; *** p<0.001, compared to LPS-stimulated cells.

[3] = test system: LPS-activated splenocytes; assay: Cytokine secretion from LPS-activated splenocytes (ELISA); assay type: cell-based, mouse; details: LPS 5 μg/mL; 24 h (IL-2) or 48 hr
Description: 1. Sacrifice Balb/c mice by decapitation. 2. Remove spleens from mice, pool, and squeeze to single cell suspension 3. Lyse red blood cells using lysis buffer, and wash cells several times. 4. Plate splenocytes (5×10^6 cells/well) on a 24-well tissue culture plate, in DMEM containing 10% FBS, 2 mM glutamine, 100 U/ml penicillin and 100 micrograms/mL streptomycin; 5. Treat cells with freshly diluted AcA of the invention; 6. Activate […] with lipopolysaccharide (LPS, 5 micrograms/mL); 7. Collect conditioned media for the measurement of cytokine levels; IL-2, after 24 h; IFNγ, TNF-α, IL-10, IL-12 and IL-6 after 48 hr. 8. Measure the levels of cytokines by ELISA; Ten naive Balb/c mice were sacrificed by decapitation. […] Spleens were removed from mice, pooled and squeezed to single cell suspension. Red blood cells were lysed using lysis buffer, cells were washed several times, and were plated (5×10^6 cells/well/ml) on a 24-well tissue culture plate. Cells were then stimulated with LPS (5 μg/mL) in the presence or absence of achillolide A. Conditioned media of the cells were collected for analysis: IL-2, after 24 h; IFNγ, TNF-α, IL-10, IL-12 and IL-6 after 48 hr. Cytokine levels were measured by ELISA in supernatants collected at the indicated time points. Data represent the mean±SEM from two different experiments performed in duplicates. […]

primary astrocytes = details: Nones et al., 2012; cited from earlier work

COc1cc(-c2oc3cc(OC)c(OC)c(O)c3c(=O)c2O)ccc1O [TTF, 3,5,4′-trihydroxy-6,7,3′-trimethoxyflavone]
effect on SNP-induced phosphorylation of ERK1/2 (ERK1/2): significantly inhibited

C=C1CCC2=C(CO)C(=O)O[C@H]2/C=C(\C)[C@H](OC(C)=O)CC1=O [achillolide A]
toxicity in MMP-9 experiments (microglial cells [1]): no toxicity was observed | cytotoxic effect in activated microglial cells (microglial cells [2]): without a significant cytotoxic effect | effect on LPS-induced MMP-9 activity (MMP-9): markedly inhibited | inhibition of the LPS-induced levels of secreted glutamate (glutamate): 80% | effect on cytokine secretion (IL-2, IFNγ, TNF-α, IL-10, IL-12, IL-6) [3]: Downregulates

O=c1c(O)c(-c2ccc(O)c(O)c2)oc2cc(O)cc(O)c12 [quercetin, 3,3′,4′,5,7-Pentahydroxyflavone, reference compound]
nontoxic concentration in primary astrocytes (primary astrocytes): up to 100 μM
